Reference: PMC13083723 (Patterns, 2026)

Test system: Vero-E6 cells
Assay: cells
Assay type: cell-based
Conditions: for activation at 10 µM: Chlorocebus sabaeus, Vero C1008, 24 h, read-out: PL_Result

Compound	activation at 10 µM [%]	PL_Result
COCC(=O)O[C@]1(CCN(C)CCCc2nc3ccccc3[nH]2)CCc2cc(F)ccc2[C@@H]1C(C)C [SPE_K09549677]	97.4	–
N#Cc1ccc(Cn2cncc2CN2CCN(c3cccc(Cl)c3)C(=O)C2)cc1 [SPE_K10958118]	-5.79	–
COc1cc(Oc2ccnc3cc(OC)c(OC)cc23)ccc1NC(=O)NC(C)c1nccs1 (centres unmarked) [SPE_A88787317]	-0.267	–
CCCC(CCC)C(=O)NCc1ccc2c(cnn2-c2ccccc2OC)c1 [SPE_K51265828]	1.45	–
N[C@H](CSC(c1ccccc1)(c1ccccc1)c1ccccc1)C(=O)O [SPE_K09774593]	-6.1	–
CC(C)(C)C(=O)NCCCC(=O)O [SPE_K62264492]	5.19	–
C#C[C@]1(O)CC[C@H]2[C@@H]3CCC4=CC(=O)CCC4=C3C=C[C@@]21CC [SPE_K97472745]	-10.6	–
O=C1C(Cl)=C(N2CCOCC2)C(=O)N1c1ccc(Cl)c(Cl)c1 [SPE_K79555887]	5.74	–
COc1cc(/C=C/C(N)=O)cc(OC)c1OC [SPE_K24507548]	-1.45	–
CCOc1ccccc1O[C@@H](c1ccccc1)[C@@H]1CNCCO1.CCOc1ccccc1O[C@H](c1ccccc1)[C@H]1CNCCO1 [SPE_A43974499]	–	14.61
CN1C2CCCC1CC(NC(=O)c1nn(C)c3ccccc13)C2 (centres unmarked) [SPE_A10967948]	3.5	–
OCCN1C[C@@H](O)[C@@H](O)C(O)C1CO (some centres unmarked) [SPE_A63310107]	-7.51	–
COc1ccc2cc([C@H](C)C(=O)O)ccc2c1 [SPE_K59197931]	-3.31	–
Oc1nc(-c2ccc(C(F)(F)F)cc2)nc2c1CSCC2 [SPE_K12762134]	-6.13	–
C=C(C)[C@@H]1CC[C@]2(C(=O)O)CC[C@]3(C)[C@H](CC[C@@H]4[C@@]5(C)CC[C@H](O)C(C)(C)[C@@H]5CC[C@]43C)[C@@H]12 [SPE_K45401373]	-11.4	–
COC(=O)Nc1ccc(-c2nc(N3CCOCC3)c3cnn(C4CCN(Cc5cccnc5)CC4)c3n2)cc1 [SPE_K49900195]	1.79	–
Cn1cc(-c2cc(Oc3cc(F)c(NC(=O)C4(C(=O)Nc5ccccc5)CC4)cc3F)ccn2)cn1 [SPE_K49246350]	-0.953	–
Clc1ccc(C(Cn2ccnc2)OCc2ccc(Sc3ccccc3)cc2)c(Cl)c1 (centres unmarked) [SPE_A33697453]	17.3	–
NC1CCN(c2cccnc2)C1 (centres unmarked) [SPE_A29844814]	-9.03	–
Nc1ccn(C[C@@H](CO)OCP(=O)(O)O)c(=O)n1 [SPE_K96153583]	-12.6	–

Compound	activation at 10 µM [%]	PL_Result
CCN(CC)CCN(Cc1ccc(-c2ccc(C(F)(F)F)cc2)cc1)C(=O)Cn1c(SCc2ccc(F)cc2)nc(=O)c2c1CCC2 [SPE_K19085898]	-5.09	–
O=[N+]([O-])c1cc(Cl)ccc1S(=O)(=O)N1CCN(Cc2ccccc2)CC1 [SPE_K45519571]	3.29	–
CC(C)Oc1ccc(-c2cnc3c(-c4ccnc5ccccc45)cnn3c2)cc1 [SPE_K39381259]	-4.31	–
CCC(N)C(O)c1ccc(O)c(O)c1 (centres unmarked) [SPE_A68509429]	-8.71	–
O=C(CC(c1ccccc1)c1ccccc1)N1CCN(C(c2ccccc2)c2ccccc2)CC1 [SPE_K16037980]	-13.7	–
Nc1ncnc2c1ncn2[C@@H]1O[C@H](CO)C[C@H]1O [SPE_K65428967]	-10.4	–
N#Cc1ccc(N2CCN(C(=O)COc3ccc4[nH]cc(CCN)c4c3)CC2)cc1 [SPE_K31092604]	1.38	–
Cc1nnc(C(=O)NC(C)(C)c2nc(C(=O)NCc3ccc(F)cc3)c(O)c(=O)n2C)o1 [SPE_K05658747]	-12.8	–
CCCCCCCCCCCCCCCCCCO [SPE_K20501889]	-5.89	–
O=S(=O)(NCCCCCCc1ccccc1)c1cccc2c(Cl)cccc12 [SPE_K25875056]	-10.4	–
CC(C)(C)c1ccc(NC(=O)N2CCN(c3ncccc3Cl)CC2)cc1 [SPE_K66541497]	-7.73	–
CCN(c1ccccc1)c1cc(NC)[n+](C)c(C)n1 [SPE_K18678457]	-5.38	–
C[C@]12CC[C@H](O)C[C@H]1CC[C@@H]1[C@@H]2CC[C@]2(C)[C@@](O)(c3ccoc3)CC[C@]12O [SPE_K11672787]	-0.921	–
COc1cc(COc2cc(N)c(Cl)cc2C(=O)CCC2CCN(CCNS(C)(=O)=O)CC2)cc(OC)c1 [SPE_K20742498]	-9.12	–
C=C1C(=O)O[C@@H]2[C@H]3O[C@]3(C)CC/C=C(\C)CC[C@@H]12 [SPE_K28120222]	-7.03	–
O=C1c2ccccc2C(Cc2ccnc(F)c2)(Cc2ccnc(F)c2)c2ccccc21 [SPE_K89274813]	-6.43	–
COc1ccc(Cl)c(Nc2nc3ccccc3nc2NS(=O)(=O)c2cccc(NC(=O)C(C)(C)N)c2)c1 [SPE_K49456274]	-4.27	–
CCN1CCC(n2cc(CNc3cc(Cl)c4ncc(C#N)c(Nc5ccc(F)c(Cl)c5)c4c3)nn2)CC1 [SPE_K49468759]	33.2	–
NCCc1ccc(O)c(O)c1 [SPE_K43887077]	-4.01	–
Nc1ncnc2c1ncn2C1O[C@H](COP(=O)(O)O)[C@@H](O)[C@H]1O (some centres unmarked) [SPE_A10111329]	-12.1	–

Compound	activation at 10 µM [%]	PL_Result
CCCCC/C=C\C/C=C\C/C=C\CCCCC(=O)O [SPE_K18059238]	1.69	–
Cc1ccc(=O)n(-c2ccccc2)c1 [SPE_K96862998]	4.03	–
COc1ccccc1N1CCN(CCN2C(=O)c3ccccc3C(C)(C)C2=O)CC1 [SPE_K93188295]	-15	–
CCC(C)(C)C(=O)C(=O)N1CCC[C@H]1C(=O)OCCCc1cccnc1 [SPE_K44869961]	2.45	–
CCC(=O)NO [SPE_K11984358]	-5.92	–
O=C(Nc1cccc(Cl)c1)c1ccccn1 [SPE_K66527818]	-8.01	–
O=C(O)C1=CCCN(CCON=C(c2ccccc2)c2ccccc2)C1 [SPE_K42221274]	0.196	–
CC(=O)c1ccc2c(c1)N(CCCN(C)C)c1ccccc1S2 [SPE_K37814297]	27.3	–
O=C(O)C(=O)c1cn(Cc2ccccc2)c2ccc(-c3ccc(OC(F)(F)F)cc3)cc12 [SPE_K30882994]	1.29	–
CCCCc1nn(-c2ccccc2C(F)(F)F)c(=O)n1Cc1ccc(-c2ccccc2S(=O)(=O)NC(=O)c2sccc2C)cc1 [SPE_K39733634]	-1.37	–
O=C(NC(=O)c1c(F)cccc1Cl)NC1c2ccccc2-c2ccccc21 [SPE_K24527118]	-7.81	–
O=C(NC(Cc1c[nH]c2ccccc12)C(=O)O)c1ccc(Cl)cc1 (centres unmarked) [SPE_A87983072]	-4.45	–
CC(=O)[C@@]1(O)CC[C@H]2[C@@H]3C[C@H](C)C4=CC(=O)CC[C@]4(C)[C@H]3CC[C@@]21C [SPE_K99615199]	-9.68	–
CCn1cnc2c(Nc3cccc(Cl)c3)nc(N[C@@H]3CCCC[C@@H]3N)nc21 [SPE_K56239177]	0.0914	–
Nc1ccc(C(=O)Oc2ccccc2)c(O)c1 [SPE_K73157543]	-14.5	–
Cc1c(NC(=O)c2cccnc2)c(=O)n(-c2ccccc2)n1C [SPE_K47407372]	-10.1	–
CCCc1nc(C)c2c(=O)[nH]c(-c3cc(S(=O)(=O)N4CCN(CC)CC4)ccc3OCC)nn12 [SPE_K13926615]	1	–
Fc1ccc(Cl)cc1-c1nc(Nc2ccncc2)c2nccnc2n1 [SPE_K24566386]	-5.24	–
Nc1c[n+](N2CCOCC2)no1 [SPE_K72922393]	-10.9	–
